From PubChem BioAssay AID248 (DTP/NCI, 2004)
Toxic doses and inconclusive results are not listed. Rule as the data show it: active = T/C of 150% or more; inactive = T/C below 125%.

Test system: L1210 leukemia ip in BDF1 mice, survival T/C
Test: NCI In Vivo Anticancer Drug Screen. Data for tumor model L1210 Leukemia (intraperitoneal) in B6D2F1 (BDF1) mice
Conditions: endpoint: mean survival time, higher = longer survival
Outline: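 In this screen, tumor-bearing mice given compound are compared to those given vehicle, and their survival values are reported as a treated-to-control quotient.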

[1] = dose: 100.0 mg/kg/injection, schedule: Q01DX001 (ip), vehicle: Klucel (hydroxypropylcellulose) (HPC)
[2] = dose: 100.0 mg/kg/injection, schedule: Q01DX001 (ip), vehicle: saline
[3] = dose: 100.0 mg/kg/injection, schedule: Q01DX009 (ip), vehicle: saline
[4] = dose: 200.0 mg/kg/injection, schedule: Q01DX001 (ip), vehicle: saline
[5] = dose: 200.0 mg/kg/injection, schedule: Q01DX009 (ip), vehicle: saline
[6] = dose: 400.0 mg/kg/injection, schedule: Q01DX001 (ip), vehicle: saline
[7] = dose: 50.0 mg/kg/injection, schedule: Q01DX009 (ip), vehicle: saline with Tween-80
[8] = dose: 100.0 mg/kg/injection, schedule: Q01DX009 (ip), vehicle: saline with Tween-80
[9] = dose: 100.0 mg/kg/injection, schedule: Q01DX009 (ip), vehicle: Klucel (hydroxypropylcellulose) (HPC)
[10] = dose: 200.0 mg/kg/injection, schedule: Q01DX009 (ip), vehicle: Klucel (hydroxypropylcellulose) (HPC)
[11] = dose: 400.0 mg/kg/injection, schedule: Q01DX009 (ip), vehicle: Klucel (hydroxypropylcellulose) (HPC)
[12] = dose: 50.0 mg/kg/injection, schedule: Q01DX001 (ip), vehicle: saline
[13] = dose: 100.0 mg/kg/injection, schedule: Q04DX002 (ip), vehicle: Klucel (hydroxypropylcellulose) (HPC)
[14] = dose: 200.0 mg/kg/injection, schedule: Q04DX002 (ip), vehicle: Klucel (hydroxypropylcellulose) (HPC)
[15] = dose: 100.0 mg/kg/injection, schedule: Q04DX003 (ip), vehicle: saline with Tween-80
[16] = dose: 200.0 mg/kg/injection, schedule: Q04DX003 (ip), vehicle: saline with Tween-80
[17] = dose: 400.0 mg/kg/injection, schedule: Q04DX002 (ip), vehicle: Klucel (hydroxypropylcellulose) (HPC)
[18] = dose: 400.0 mg/kg/injection, schedule: Q04DX003 (ip), vehicle: saline with Tween-80
[19] = dose: 100.0 mg/kg/injection, schedule: Q04DX003 (ip), vehicle: Klucel (hydroxypropylcellulose) (HPC)
[20] = dose: 200.0 mg/kg/injection, schedule: Q04DX003 (ip), vehicle: Klucel (hydroxypropylcellulose) (HPC)
[21] = dose: 400.0 mg/kg/injection, schedule: Q04DX003 (ip), vehicle: Klucel (hydroxypropylcellulose) (HPC)
[22] = dose: 200.0 mg/kg/injection, schedule: Q01DX001 (ip), vehicle: Klucel (hydroxypropylcellulose) (HPC)
[23] = dose: 400.0 mg/kg/injection, schedule: Q01DX001 (ip), vehicle: Klucel (hydroxypropylcellulose) (HPC)
[24] = dose: 200.0 mg/kg/injection, schedule: Q01DX009 (ip), vehicle: saline with Tween-80
[25] = dose: 100.0 mg/kg/injection, schedule: Q01DX001 (ip), vehicle: saline with Tween-80
[26] = dose: 200.0 mg/kg/injection, schedule: Q01DX001 (ip), vehicle: saline with Tween-80
[27] = dose: 400.0 mg/kg/injection, schedule: Q01DX001 (ip), vehicle: saline with Tween-80

Measured: T/C

C=CCSc1ccnc(N)n1
inactive: dose: 50.0 mg/kg/injection, schedule: Q01DX001 (ip), vehicle: Klucel (hydroxypropylcellulose) (HPC) 103 % of control | [1] 101 % of control

O=C(O)C/C1=C/CCCCCC1
inactive: [2] 96 % of control | [3] 96 % of control | [4] 92 % of control | [5] 96 % of control | [6] 101 % of control | dose: 400.0 mg/kg/injection, schedule: Q01DX009 (ip), vehicle: saline 93 % of control

COc1ccc(/C=N/NC(=S)Nc2ccccn2)cc1OC
inactive: dose: 25.0 mg/kg/injection, schedule: Q01DX009 (ip), vehicle: saline with Tween-80 104 % of control | [7] 93 % of control | [8] 122 % of control

CCOC(=O)COc1ccc(/C=C/c2ccnc3ccccc23)cc1
inactive: [9] 100 % of control | [10] 106 % of control | [11] 94 % of control

Nc1ccn(C2CCCO2)c(=O)n1 (configuration not stated)
inactive: [12] 101 % of control | [2] 95 % of control | [4] 95 % of control | [6] 95 % of control

CN(C)CCCN1c2cc(Cl)ccc2Sc2ccc(Cl)cc21
inactive: [13] 122 % of control | [14] 108 % of control

O=C(O)c1scc2c1CCCC2
inactive: [15] 97 % of control | [16] 87 % of control

O=C(N/N=C\c1ccc(N(CCCl)CCCl)cc1[N+](=O)[O-])c1cccnc1
inactive: [12] 94 % of control | [2] 113 % of control | [4] 92 % of control

CN(C)P(Cl)(Cc1ccccc1)(c1ccccc1)c1ccccc1
inactive: dose: 3.12 mg/kg/injection, schedule: Q01DX009 (ip), vehicle: saline 106 % of control | dose: 6.25 mg/kg/injection, schedule: Q01DX009 (ip), vehicle: saline 105 % of control | dose: 12.5 mg/kg/injection, schedule: Q04DX003 (ip), vehicle: saline 106 % of control

COc1ccc(OC)c(NC(=O)Oc2ccc3c(C)cc(=O)oc3c2)c1
inactive: [9] 101 % of control | [10] 97 % of control | [11] 87 % of control

C=CCn1c(SCc2ccccc2)nccc1=O
inactive: [13] 111 % of control | [14] 122 % of control | [17] 108 % of control

CC(CCC1CCCCC1)c1ccccc1 (configuration not stated) (tested in a mixture with another compound)
inactive: [15] 93 % of control | [16] 96 % of control | [18] 93 % of control

COc1ccc(C=Nc2cc(Cl)ccc2O)cc1
inactive: dose: 100.0 mg/kg/injection, schedule: Q01DX001 (ip), vehicle: carboxymethylcellulose (CMC) 89 % of control | dose: 200.0 mg/kg/injection, schedule: Q01DX001 (ip), vehicle: carboxymethylcellulose (CMC) 95 % of control | dose: 400.0 mg/kg/injection, schedule: Q01DX001 (ip), vehicle: carboxymethylcellulose (CMC) 95 % of control

CC1CC1C(=O)Cl (configuration not stated)
inactive: dose: 50.0 mg/kg/injection, schedule: Q01DX009 (ip), vehicle: saline 97 % of control | [3] 101 % of control

NC1(C(=O)O)Cc2ccccc2B(O)OC1=O (configuration not stated)
inactive: [19] 98 % of control | [20] 96 % of control | [21] 106 % of control

C/C(=C\Cl)CN(C)C
inactive: [15] 97 % of control | [16] 94 % of control

CC(=O)OC1=COc2c(Cl)ccc3cccc1c23
inactive: [1] 103 % of control | [22] 109 % of control | [23] 97 % of control

N#C/C(N)=C(/C#N)N=Cc1ccccc1
inactive: [1] 97 % of control | [22] 98 % of control | [23] 98 % of control

CCCCCCC(C)O[Si](C)c1ccc(OC)cc1 (configuration not stated)
inactive: [8] 107 % of control | [15] 98 % of control | [24] 105 % of control | [16] 101 % of control | dose: 400.0 mg/kg/injection, schedule: Q01DX009 (ip), vehicle: saline with Tween-80 98 % of control | [18] 102 % of control

N=C(N)Sc1cccc[n+]1[O-]
inactive: [2] 105 % of control | [4] 111 % of control

O=CO.[Cr]
inactive: [2] 102 % of control | [4] 98 % of control | [6] 98 % of control

c1c[nH]c(Cc2ccc3ccccc3c2)c1
inactive: dose: 100.0 mg/kg/injection, schedule: Q01DX009 (ip), vehicle: other 110 % of control | dose: 100.0 mg/kg/injection, schedule: Q04DX003 (ip), vehicle: other 102 % of control | dose: 200.0 mg/kg/injection, schedule: Q01DX009 (ip), vehicle: other 97 % of control | dose: 200.0 mg/kg/injection, schedule: Q04DX003 (ip), vehicle: other 101 % of control | dose: 400.0 mg/kg/injection, schedule: Q01DX009 (ip), vehicle: other 110 % of control | dose: 400.0 mg/kg/injection, schedule: Q04DX003 (ip), vehicle: other 102 % of control

CC(C)=NNC(=O)CNc1ccc(Cl)c(C(F)(F)F)c1
inactive: [13] 97 % of control | [14] 104 % of control | [17] 111 % of control

CCCCCCCCCCOC(=O)COc1ccc(C(C)(C)C)cc1
inactive: [3] 92 % of control | [5] 98 % of control

Clc1ccc(/C=N/Nc2nnc(N/N=C/c3ccc(Cl)cc3)c3ccccc23)cc1
inactive: [12] 95 % of control | [2] 101 % of control | [4] 101 % of control | [6] 95 % of control

COC1OC2COC(c3ccccc3)OC2C(O)C1NC(C)=O (configuration not stated)
inactive: [1] 95 % of control | [25] 101 % of control | [22] 104 % of control | [26] 97 % of control | [27] 98 % of control

CC(=O)NC(CO)C(O)c1ccc([N+](=O)[O-])cc1 (configuration not stated)
inactive: [25] 101 % of control | dose: 100.0 mg/kg/injection, schedule: Q04DX002 (ip), vehicle: saline with Tween-80 87 % of control | [26] 87 % of control | dose: 200.0 mg/kg/injection, schedule: Q04DX002 (ip), vehicle: saline with Tween-80 94 % of control | [27] 97 % of control | dose: 400.0 mg/kg/injection, schedule: Q04DX002 (ip), vehicle: saline with Tween-80 100 % of control

Cc1ccc(C(=O)Oc2ccc(Cl)c(C)c2Cl)cc1
inactive: dose: 75.0 mg/kg/injection, schedule: Q01DX001 (ip), vehicle: carboxymethylcellulose (CMC) 91 % of control | dose: 150.0 mg/kg/injection, schedule: Q01DX001 (ip), vehicle: carboxymethylcellulose (CMC) 92 % of control | dose: 300.0 mg/kg/injection, schedule: Q01DX001 (ip), vehicle: carboxymethylcellulose (CMC) 92 % of control

O=C1c2ccccc2Cc2ccc(-c3ccccc3)cc21
inactive: [7] 92 % of control | [8] 95 % of control | [24] 89 % of control

Nc1nc2nc(N=Nc3ccc(S(=O)(=O)O)cc3)[nH]c2c(=O)[nH]1
inactive: [19] 93 % of control | [20] 93 % of control | [21] 93 % of control

CCCCC1CN=C(c2ccc(NC(=O)c3ccc(C(=O)Nc4ccc(C5=NCC(CCCC)CN5)cc4)c(Cl)c3)cc2)NC1 (configuration not stated)
inactive: dose: 5.0 mg/kg/injection, schedule: Q01DX015 (ip), vehicle: methylcellulose (MC) 109 % of control | dose: 22.5 mg/kg/injection, schedule: Q01DX015 (ip), vehicle: methylcellulose (MC) 123 % of control | dose: 45.0 mg/kg/injection, schedule: Q01DX015 (ip), vehicle: methylcellulose (MC) 111 % of control | dose: 62.0 mg/kg/injection, schedule: Q01DX015 (ip), vehicle: methylcellulose (MC) 109 % of control

[Cl][Pd][Cl].[NH-]CCN1CC1
inactive: dose: 25.0 mg/kg/injection, schedule: Q04DX002 (ip), vehicle: saline + alcohol 113 % of control | dose: 50.0 mg/kg/injection, schedule: Q04DX002 (ip), vehicle: saline + alcohol 102 % of control | dose: 100.0 mg/kg/injection, schedule: Q04DX002 (ip), vehicle: saline + alcohol 117 % of control | dose: 100.0 mg/kg/injection, schedule: Q04DX002 (ip), vehicle: saline 116 % of control
